Values after ≈ are worked out from the molar mass of the structure shown.
Columns and labels:
Candida albicans = experiment: Antifungal activity against Candida albicans ATCC 18804 after 48 hrs by microbroth dilution assay; type: functional; details: ATCC 18804, 48 h
Candida tropicalis = experiment: Antifungal activity against Candida tropicalis ATCC 750 after 48 hrs by microbroth dilution assay; type: functional; details: ATCC 750, 48 h
[1] = test system: Cryptococcus bacillisporus; experiment: Antifungal activity against Cryptococcus gattii ATCC 32608 after 72 hrs by microbroth dilution assay; type: functional; details: ATCC 32608, 72 h
Cryptococcus neoformans = experiment: Antifungal activity against Cryptococcus neoformans ATCC 24067 after 72 hrs by microbroth dilution assay; type: functional; details: ATCC 24067, 72 h
Pichia kudriavzevii = experiment: Antifungal activity against Candida krusei ATCC 20298 after 48 hrs by microbroth dilution assay; type: functional; details: ATCC 20298, 48 h
[2] = test system: Paracoccidioides brasiliensis; experiment: Antifungal activity against Paracoccidioides brasiliensis Pb18 after 7 days by microbroth dilution assay; type: functional; details: 168 h
Candida parapsilosis = experiment: Antifungal activity against Candida parapsilosis ATCC 22019 after 48 hrs by microbroth dilution assay; type: functional; details: Lodderomyces parapsilosis, ATCC 22019, 48 h
HEK293 = experiment: Cytotoxicity against human HEK293 cells after 72 hrs by MTT assay; type: cell-based; details: HEK293, 72 h
[3] = Cytotoxicity against human HEK293 cells assessed as cell viability at 250 uM after 72 hrs by MTT assay relative to control; type: cell-based; details: read-out: Activity

Structure (SMILES) | MIC (Candida albicans) | MIC (Candida tropicalis) | MIC [1] | MIC (Cryptococcus neoformans) | MIC (Pichia kudriavzevii) | MIC [2] | MIC (Candida parapsilosis) | IC50 (HEK293) | viability at 72 h, 250 µM [3]
COc1cc(/C=C/C(C)=N/Nc2nc(-c3ccccc3)cs2)ccc1O | 250 µM (≈ 91.4 µg/mL) | 250 µM (≈ 91.4 µg/mL) | 250 µM (≈ 91.4 µg/mL) | 250 µM (≈ 91.4 µg/mL) | 250 µM (≈ 91.4 µg/mL) | 250 µM (≈ 91.4 µg/mL) | 250 µM (≈ 91.4 µg/mL) | – | –
CC(C)(C)/C=N/NC(N)=S | > 250 µM | > 250 µM | > 250 µM | > 250 µM | > 250 µM | > 250 µM | > 250 µM | – | –
C[C@@H]1[C@H](O)[C@@H](C)/C=C/C=C/C=C/C=C/C=C/C=C/C=C/[C@H](O[C@@H]2O[C@H](C)[C@@H](O)[C@H](N)[C@@H]2O)C[C@@H]2O[C@](O)(C[C@@H](O)C[C@@H](O)[C@H](O)CC[C@@H](O)C[C@@H](O)CC(=O)O[C@H]1C)C[C@H](O)[C@H]2C(=O)O [AMPHOTERICIN B] | 0.3 µM (≈ 0.277 µg/mL) | 1.2 µM (≈ 1.11 µg/mL) | 0.08 µM (≈ 0.0739 µg/mL) | 0.09 µM (≈ 0.0832 µg/mL) | 0.5 µM (≈ 0.462 µg/mL) | 0.06 µM (≈ 0.0554 µg/mL) | 0.5 µM (≈ 0.462 µg/mL) | 78.6 µM | –
CC(C)(C)/C=N/Nc1nc(-c2ccccc2)cs1 | 3.9 µM (≈ 1.01 µg/mL) | 31.2 µM (≈ 8.09 µg/mL) | 1.9 µM (≈ 0.493 µg/mL) | 1.9 µM (≈ 0.493 µg/mL) | 5.8 µM (≈ 1.5 µg/mL) | 125 µM (≈ 32.4 µg/mL) | 3.9 µM (≈ 1.01 µg/mL) | – | –
COc1ccc(-c2csc(N/N=C(C)/C=C/c3ccc(O)c(OC)c3)n2)cc1 | 250 µM (≈ 98.9 µg/mL) | 250 µM (≈ 98.9 µg/mL) | 250 µM (≈ 98.9 µg/mL) | 250 µM (≈ 98.9 µg/mL) | 250 µM (≈ 98.9 µg/mL) | – | 250 µM (≈ 98.9 µg/mL) | – | –
COc1cc(/C=C/C(C)=N/NC(N)=S)ccc1O | > 250 µM | > 250 µM | > 250 µM | > 250 µM | > 250 µM | > 250 µM | > 250 µM | – | –
OC(Cn1cncn1)(Cn1cncn1)c1ccc(F)cc1F [FLUCONAZOLE] | 1.6 µM (≈ 0.49 µg/mL) | 6.5 µM (≈ 1.99 µg/mL) | 12.7 µM (≈ 3.89 µg/mL) | 6.2 µM (≈ 1.9 µg/mL) | 104 µM (≈ 32 µg/mL) | – | 3.2 µM (≈ 0.98 µg/mL) | > 250 µM | 99.2%
CCC(C)n1ncn(-c2ccc(N3CCN(c4ccc(OCC5COC(Cn6cncn6)(c6ccc(Cl)cc6Cl)O5)cc4)CC3)cc2)c1=O (configuration not stated) [ITRACONAZOLE] | 0.7 µM (≈ 0.494 µg/mL) | 0.09 µM (≈ 0.0635 µg/mL) | 0.18 µM (≈ 0.127 µg/mL) | 0.04 µM (≈ 0.0282 µg/mL) | 0.18 µM (≈ 0.127 µg/mL) | 0.06 µM (≈ 0.0423 µg/mL) | 0.18 µM (≈ 0.127 µg/mL) | > 250 µM | 90.8%
C/C(=N\Nc1nc(-c2ccc(Cl)cc2)cs1)c1ccc(N)cc1 | > 250 µM | > 250 µM | > 250 µM | > 250 µM | > 250 µM | > 250 µM | > 250 µM | – | –
CCC/C(CC)=N/NC(N)=S | > 250 µM | > 250 µM | > 250 µM | > 250 µM | > 250 µM | > 250 µM | > 250 µM | – | –
Clc1ccc(-c2csc(N/N=C/C=C/c3ccccc3)n2)cc1 | > 250 µM | > 250 µM | > 250 µM | > 250 µM | > 250 µM | > 250 µM | > 250 µM | – | –
COc1cc(/C=C/C(C)=N/Nc2nc(-c3ccc(Cl)cc3)cs2)ccc1O | 250 µM (≈ 100 µg/mL) | 250 µM (≈ 100 µg/mL) | 125 µM (≈ 50 µg/mL) | 250 µM (≈ 100 µg/mL) | 250 µM (≈ 100 µg/mL) | 62.5 µM (≈ 25 µg/mL) | 250 µM (≈ 100 µg/mL) | – | –
